Data published in patent US20150025012A1, “METHODS AND COMPOSITIONS FOR IDENTIFICATION, ASSESSMENT AND TREATMENT OF CANCERS ASSOCIATED WITH HEDGEHOG SIGNALING” (Infinity Pharmaceuticals, Inc., priority 2010, published 2015).
Structures can show the parent of a compound that is named as a salt.

Key:
human SHh expression = assay: Hedgehog ligand expression in bladder cancer cells after chemotherapy; type: cell-based; settings: 24, 48, 72 hours, highest after 144 hours
hedgehog pathway = assay: C3H10T1/2 alkaline phosphatase assay (Shh-dependent osteoblast differentiation); type: cell-based; settings: Mus musculus, C3H 10T1/2; HCl salt; sonic hedgehog 250 ng/ml; AP activity normalized against total protein; read-out: IC50 (antagonist of the hedgehog pathway)
From the text: An exemplary assay to evaluate the activity of a hedgehog inhibitor is as follows. C3H10T1/2 cells differentiate into osteoblasts when contacted with the sonic hedgehog peptide (Shh-N). Upon differentiation, these osteoblasts produce high levels of alkaline phosphatase (AP) which can be measured in an enzymatic assay (Nakamura et al., 1997 BBRC 237: 465). Compounds that block the differentiation of C3H10T1/2 into osteoblasts (a Shh dependent event) can therefore be identified by a reduction in AP production (van der Horst et al., 2003 Bone 33: 899). The assay details are described below. Additional assays to ascertained the activity of hedgehog inhibitors, including IPI-926, are described in US 2009/0181997 by Grayzel et al., U.S. Ser. No. 61/327,373 and 61/331,365, filed on Apr. 23, 2010 and May 4, 2010, respectively; the entire contents of the aforesaid applications are incorporated herein by reference. […]
C3H10T1/2 cells were plated in 96 wells with a density of 8×10^3 cells/well. […] After incubating for 30 min at 37° C., the plates were read on an Envision plate reader at 405 nm. Total protein was quantified with a BCA protein assay kit from Pierce according to manufacturer's instructions. […]

Bx-PC3 tumors = assay: Growth of Bx-PC3 tumors in mice; type: in vivo; settings: single agents and combination
From the text: Bevacizumab, a monoclonal antibody, exerts its activity by neutralizing VEGF, a factor important of the proliferation and survival of endothelial cells. […] In the same study, the relative effect of these agents was explored by measuring the mRNA expression of PECAM-1, a marker of endothelial cells and RGS5, a marker of pericytes. […] The role of the vasculature and its supporting pericyte population in the mechanism of action of IPI-926 continues to be explored.
For in vivo studies, tumors were grown in male NCR-nu/nu mice by subcutaneous injection of 5×10^6 cells. Tumor growth was monitored using calipers. When tumors reached an approximate size of 200 mm^3, tumor bearing animals were randomized into treatment arms and administered agents or vehicles as described.

COc1cccc2c1C(=O)c1c(O)c3c(c(O)c1C2=O)C[C@@](O)(C(=O)CO)C[C@@H]3O[C@H]1C[C@H](N)[C@H](O)[C@H](C)O1 [doxorubicin]
human SHh expression (human SHh expression): increase

CC1=C2C[C@H]3[C@@H](CC[C@@H]4C[C@H](NS(C)(=O)=O)CC[C@@]43C)[C@@H]2CC[C@@]2(C1)O[C@@H]1C[C@H](C)CN[C@H]1[C@H]2C [IPI-926 (HCl salt)]
IC50 (hedgehog pathway): < 20 nM

Nc1ccn([C@@H]2O[C@H](CO)[C@@H](O)C2(F)F)c(=O)n1 [gemcitabine]
human SHh expression (human SHh expression): increase

Bevacizumab: a monoclonal antibody, exerts its activity by neutralizing VEGF
activity on the growth of Bx-PC3 tumors (Bx-PC3 tumors): approximately the same single agent activity
